Laboratory results published in patent US20220168310A1, “INHIBITION OF ADENOVIRUS WITH FILOCICLOVIR” (Microbiotix, Inc., priority 2019, published 2022).
Like-named read-outs stand apart in the source and are kept apart here.

Columns and labels:
Adenovirus 5 (AdV5) = assay: Cytopathic effects (CPE) reduction assay, AdV5 in HFF cells, 384-well; type: cell-based, human adenovirus; details: for SI: CC50/EC50, AdV5
[1] = Cytotoxicity, CellTiter-Glo cell viability assay in HFF cells; details: human
Method: (§1) Human foreskin tissue was obtained from the University of Alabama at Birmingham tissue procurement facility with approval from the Institutional Review Board. The tissue was stored at 4° C. in cell culture medium consisting of minimum essential media (MEM) with Earle's salts supplemented with 10% fetal bovine serum (FBS; HyClone, Inc., Logan, Utah) and standard concentration of L-glutamine, amphotericin B (Fungizone), and vancomycin. The tissue was then placed in a phosphate-buffered saline solution, minced, and rinsed to remove the red blood cells. Tissue fragments were then resuspended in a trypsin-EDTA solution and incubated at 37° C. to disperse the cells, which were then collected by centrifugation. Cell pellets were then resuspended in 4 ml culture medium, placed in a 25-cm^2 tissue culture flask, and incubated at 37° C. for 24 h. The culture medium was then replaced with fresh medium and condition of the cells was monitored daily until a confluent cell monolayer was formed. The HFF cells were then expanded through serial passages in standard growth medium of MEM with Earle's salts supplemented with 10% FBS, L-glutamine, penicillin, and gentamicin. Each lot of cells was confirmed to be free of mycoplasma infection and routinely passaged or used for assays at or before passage 10.
(§2) Antiviral and cytotoxicity data were obtained in a series of three to five separate experiments for each virus to provide an accurate estimate of antiviral activity and statistical data. Each assay included positive and negative control compounds as well as infected and uninfected controls to ensure the integrity of the experiment.
(§3) The CPE reduction assays were performed in monolayers of human foreskin fibroblast (HFF) cells (5000/well) in 384-well plates in assay media consisting of MEM with Earle's salts, 2% FBS and standard concentrations of L-glutamine, penicillin and gentamycin. 5000 cells were seeded in 384-well microtiter plates and incubated at 37° C. in a humidified 5% CO2 incubator for 24 hours to allow for formation of confluent monolayers.
(§4) Cell monolayers were infected at a multiplicity of infection (MOI) of approximately 0.005 PFU/cell with virus strains including AdV5. […] Cytopathology was determined by the addition of CellTiter-Glo® reagent (Promega, Madison, Wis.). Concentrations of antiviral test compounds sufficient to reduce CPE by 50% (EC50) were interpolated from the experimental data using standard methods in Microsoft® Excel.

AdV5 = details: background, Kinchington et al 2005 cited; read-out: IC50 against AdV5; cited from earlier work
[2] = system: human foreskin fibroblast (HFF) cells; assay: Cytotoxicity, CellTiter-Glo cell viability assay in HFF cells
Method: as §1, §2, §3, §4

Human AdV6 [3] = assay: Low dose filociclovir against intravenously administered AdV6 in immunosuppressed hamsters (Example 6)
Method: Three dose levels were tested: 1, 3, and 10 mg/kg p.o. q.d.
All hamsters were immunosuppressed using cyclophosphamide (CP) administered intraperitoneally at a dose of 140 mg/kg, and then twice weekly at a dose of 100 mg/kg. Filociclovir in powdered form was suspended in 0.4% carboxymethyl cellulose (Sigma C5678) at 0.1, 0.3, and 1.0 mg/ml and sonicated to visual homogeneity. Filociclovir was made up once weekly, aliquoted into daily portions, and stored at 4° C. Aliquots were allowed to equilibrate to room temperature before dosing.
Hamsters were distributed into 7 groups, 15 hamsters/group (see Table 4), immunosuppressed as described above, and injected i.v. with vehicle (Groups 1-2) or 4×10^10 PFU/kg of AdV6 (Groups 3-7). Groups 1 and 3 received drug vehicle (p.o. q.d.), Groups 2 and 6 received 10 mg/kg filociclovir (p.o. q.d.), Group 4 received 3 mg/kg filociclovir (p.o. q.d.), Group 5 received 1 mg/kg filociclovir (p.o. q.d.), and Group 7 received cidofovir (one dose of 37 mg/kg, followed by 20 mg/kg doses 3 times weekly). For all groups, drug administration started 1 day before challenge, and continued according to the schedule above for the duration of the study.
The body weights and any signs of morbidity of the animals were monitored and recorded daily. At 5 days post challenge, 5 hamsters (designated at the start of the experiment) from each group were sacrificed, and gross pathological observation was performed. Serum and liver were collected and virus burden in liver was determined by TCID50 assay and the serum was analyzed for transaminase levels. The remaining 10 hamsters were sacrificed at 14 days post challenge. Hamsters that became moribund before Day 14 were sacrificed as needed. In addition to the animals judged moribund by observation, we sacrificed all hamsters that lost more than 20% of their original body weight. For all animals, liver tissue was preserved in formalin for histopathological examination.

Human AdV6 [4] = assay: High dose filociclovir against intravenously administered AdV6 in immunosuppressed hamsters (Example 5); details: 5 days post challenge, CDV 20 mg/kg 3 times weekly
Method: Four dose levels were tested: 10, 30, 60, and 100 mg/kg p.o. q.d. The highest dose was determined based on rat toxicology data.
All hamsters were immunosuppressed using cyclophosphamide (CP). CP was administered intraperitoneally at a dose of 140 mg/kg, and then twice weekly at a dose of 100 mg/kg.
Filociclovir, in powdered form, was suspended in 0.4% carboxymethyl cellulose (Sigma C5678) at 1, 3, 6, and 10 mg/ml and sonicated to visual homogeneity and aliquots stored at 4° C. Aliquots were allowed to equilibrate to room temperature before dosing. Hamsters weighing approximately 100 g were dosed with a 1 ml volume of the appropriate suspension for the 10, 30, 60, and 100 mg/kg dose levels. References to “vehicle” refers to 0.4% carboxymethyl cellulose
The hamsters were divided into 8 groups, 15 hamsters/group, (with the exception of Group 2, which had only 5 hamsters; see Table 3), immunosuppressed, and then injected i.v. with vehicle (Groups 1-2) or 2×10^10 PFU/kg of AdV6 (Groups […]). Groups 1 and 3 received drug vehicle (p.o. q.d.), Group 4 received 10 mg/kg filociclovir (p.o. q.d.), Group 5 received 30 mg/kg filociclovir (p.o. q.d.), Group 6 received 60 mg/kg filociclovir (p.o. q.d.), Groups 2 and 7 received 100 mg/kg filociclovir (p.o. q.d.), and Group 8 received cidofovir (20 mg/kg, 3 times weekly). For all groups, drug administration started 1 day before challenge, and continued according to the schedule above for the duration of the study.
The body weights and any signs of morbidity of the animals were recorded daily. At 5 days post challenge, 5 hamsters (designated at the start of the experiment) from each group (with the exception of Group 2) were sacrificed, and gross pathological observation was performed. Serum and liver samples were collected and the virus burden in liver was determined by a TCID50 assay, and the serum was analyzed for transaminase levels. The remaining 10 hamsters were sacrificed at 14 days post challenge. Hamsters that became visually moribund before Day 14 were sacrificed as needed. In addition to the hamsters observed to be moribund, all hamsters that lost more than 20% of their original body weight were also sacrificed. For the hamsters sacrificed at the conclusion of the experiment and those sacrificed as moribund, serum and liver tissues were collected and banked for possible determination of serum transaminase levels and virus burden in the liver. Liver tissue was preserved in formalin for possible histopathological examination.

[5] = Human mastadenovirus C, AdV5, HFF cells, 384 well CPE, average and SD from five independent experiments, read-out: EC50
[6] = human foreskin fibroblast (HFF) cell monolayers, CC50, HFF cells, run with AdV5 assay, average and SD from five independent experiments
[7] = AdV5, HFF cells, 384 well CPE, average and SD from five independent experiments, read-out: EC50
[8] = HFF cells, run with AdV5 assay, average and SD from five independent experiments

| SMILES | SI (Adenovirus 5 (AdV5)) | EC50 (Adenovirus 5 (AdV5); [5]) [µM] | CC50 [1, 6] [µM] | EC50 (Adenovirus 5 (AdV5); [7]) [µM] | other results |
| --- | --- | --- | --- | --- | --- |
| Nc1nc2c(ncn2COCCO)c(=O)[nH]1 [ACV, acyclovir] | 1.0 | > 100 | > 100 | – | – |
| O=c1[nH]c(=O)n([C@H]2C[C@H](O)[C@@H](CO)O2)cc1I [IDU, idoxuridine] | 1.0 | > 100 | > 100 | – | – |
| O=C(O)P(=O)(O)O [PFA, foscarnet] | 1.0 | > 1000 | > 1000 | – | – |
| Nc1nc(O)c2ncn(COC(CO)CO)c2n1 [GCV, ganciclovir] | – | – | > 100 | – | EC50 (Adenovirus 5 (AdV5); Human mastadenovirus C, HFF): 66 ± 15.1 µM; IC50 (Adenovirus 5 (AdV5); Human mastadenovirus C, HFF, read-out: IC50 value against AdV5): 66 µM; IC50 (AdV5): 66 ± 15.1 µM |
| OC[C@H]1O[C@@H](n2c(Br)nc3cc(Cl)c(Cl)cc32)[C@H](O)[C@@H]1O [BDCRB, bromodichlororibobenzimidazole] | 1.3 | – | – | 70 ± 39 | CC50 [2, 8]: 91 ± 13 µM |
| Cc1cn([C@H]2C[C@H](O)[C@]3(CO)C[C@H]23)c(=O)[nH]c1=O [N-MCT, N-methanocarbathymidine] | 1.3 | – | – | 57 ± 47 | CC50 [2, 8]: 72 ± 33 µM |
| Nc1ccn(C[C@@H](CO)OCP(=O)(O)O)c(=O)n1 [CDV, cidofovir, reference compound] | – | – | 97 ± 4 | – | AdV6-induced liver damage, serum transaminase (ALT) (Human AdV6 [3]; CDV, 5 days post challenge): completely prevented AdV6-induced liver pathology; AdV6 replication in the liver (Human AdV6 [3]; CDV, 5 days post challenge, TCID50): completely prevented AdV6 replication in the liver; body weight loss (Human AdV6 [3]; cidofovir 37 mg/kg once, then 20 mg/kg 3 times weekly): completely reversed body weight loss; EC50 (Adenovirus 5 (AdV5); Human mastadenovirus C, HFF): 4 ± 2 µM; animals with elevated serum transaminase levels (ALT) (Human AdV6 [4]; filociclovir p.o. q.d. groups): none; virus burden in the liver (Human AdV6 [4]; TCID50): very low to nonquantifiable levels |
| O=c1[nH]c(=O)n([C@@H]2O[C@H](CO)[C@@H](O)[C@@H]2F)cc1I [FIAU] | 1.0 | – | – | > 100 | CC50 [2]: > 100 µM |
| Nc1nc2c(ncn2CCC(CO)CO)c(=O)[nH]1 [PCV, penciclovir] | 1.0 | > 100 | > 100 | – | – |
| CCCCCCCCCCCCCCCCOCCCOP(=O)(O)CO[C@H](CO)Cn1ccc(N)nc1=O [CMX001, brincidofovir] | 27.7 | < 0.03 | 0.83 ± 0.7 | – | – |
| Nc1ncnc2c1ncn2CCOCP(=O)(O)O [PMEA, adefovir] | 2.1 | 48 ± 8 | – | – | CC50 [1]: > 100 µM |
| O=c1[nH]c(=O)n([C@@H]2CO[C@H](CO)O2)cc1/C=C/Br [L-BHDU, L-Bromovinyl-Hydroxymethyl-Dioxolan Uracil] | 1.0 | – | – | > 100 | CC50 [2]: > 100 µM |
